We go through 27 compounds from US20230256102A1, “COMPOSITES AND USES THEREOF” (YISSUM RESEARCH DEVELOPMENT COMPANY OF THE HEBREW …, priority 2019, published 2023).

Square brackets hold non-standard residues; d marks the D form. Peptide text beside a SMILES is read from it. * marks the point of attachment. Palmitoyl = CCCCCCCCCCCCCCCC(=O)*

For the first assay, the system named is Xanthomonas campestris pv. campestris (Xcc) ATCC 33913. As to the kind of experiment: Minimal inhibitory concentration (MIC) assay. It is filed as cell-based. The note with it: 24 h, 28° C. On the procedure: Bacterial strains and growth conditions: The bacterial strains used in this study are detailed in Table 2. Unless stated otherwise, all strains were grown on nutrient agar (NA, Difco) or nutrient broth (NB, Difco), except Pst that was grown on Kings B agar plates and NB. All strains were grown at 28° C. for 48 h. All bacterial cells used in this study were stored in 25% glycerol at −80° C.
Minimal inhibitory concentration (MIC) assay: MIC values were determined by broth microdilution in sterile 96-flat bottom well plates (Corning 3650) as described by Hayouka et al. (2013). Briefly, Xcc cells were grown for 24 h in NB at 28° C., with shaking (180 rpm) and re-suspended in fresh NB to reach an OD600 nm of 0.1 (˜10^8 CFU/ml) that was measured using a Genesys 10 uv spectrophotometer (ThermoSpectronic). One hundred microliter-aliquots of Xcc cells were added to 100 μl of NB medium containing peptides/lipopeptides at various concentrations. Bacterial growth was determined after incubation of 24 h at 28° C. by measurement of the optical density (OD595 nm), using a Tecan infinite Pro Plate reader. […] The highest concentration tested was 200 μg/ml. Each experiment was carried out at least three times, with three replicates per strain/concentration combination in each experiment.
Turning to `CCCCCCCCCCCCCCCC(=O)N[C@@H](Cc1ccccc1)C(=O)N[C@@H](Cc1ccccc1)C(=O)N[C@H](CCCCN)C(=O)N[C@H](CCCCN)C(=O)N[C@H](CCCCN)C(N)=O` [lipopeptide #16, p-FFkkk] (Palmitoyl-FF[dK][dK][dK]-NH2), the MIC value came out at 50 µg/mL.
With `CCCCCCCCCCCCCCCC(=O)N[C@@H](Cc1ccccc1)C(=O)N[C@H](CCCCN)C(=O)N[C@H](CCCCN)C(=O)N[C@@H](Cc1ccccc1)C(=O)N[C@@H](Cc1ccccc1)C(N)=O` [lipopeptide #19, p-FkkFF] (Palmitoyl-F[dK][dK]FF-NH2), the MIC value was 38 µg/mL.
Still for that read-out and setting: the result for `CCCCCCCCCCCCCCCC(=O)N[C@@H](Cc1ccccc1)C(=O)N[C@H](CCCCN)C(=O)N[C@H](CCCCN)C(=O)N[C@H](CCCCN)C(=O)N[C@H](CCCCN)C(N)=O` [lipopeptide #6, p-Fkkkk] (Palmitoyl-F[dK][dK][dK][dK]-NH2) reads 12 µg/mL.

The assay is the same for the next values; noted with them: 24 h, 28° C., ND = non-detected at tested concentrations (up to 200 μg/ml).
On to `CCCCCCCCCCCCCCCC(=O)N[C@H](CCCCN)C(=O)N[C@H](CCCCN)C(=O)N[C@@H](Cc1ccccc1)C(=O)N[C@H](CCCCN)C(=O)N[C@@H](Cc1ccccc1)C(N)=O` [lipopeptide #8, p-kkFkF] (Palmitoyl-[dK][dK]F[dK]F-NH2), for which the “Average MIC” value stood at 6 µg/mL.
Take `CCCCCCCCCCCCCCCC(=O)N[C@H](CCCCN)C(=O)N[C@@H](Cc1ccccc1)C(=O)N[C@H](CCCCN)C(=O)N[C@H](CCCCN)C(=O)N[C@H](CCCCN)C(N)=O` [lipopeptide #5, p-kFkkk] (Palmitoyl-[dK]F[dK][dK][dK]-NH2): the “Average MIC” value came out at 6 µg/mL.
Same read-out and setting: for `CCCCCCCCCCCCCCCC(=O)N[C@H](CCCCN)C(=O)N[C@H](CCCCN)C(=O)N[C@@H](Cc1ccccc1)C(=O)N[C@@H](Cc1ccccc1)C(=O)N[C@@H](Cc1ccccc1)C(N)=O` [lipopeptide #17, p-kkFFF] (Palmitoyl-[dK][dK]FFF-NH2) the value was 50 µg/mL; for `CCCCCCCCCCCCCCCC(=O)N[C@H](CCCCN)C(=O)N[C@@H](Cc1ccccc1)C(=O)N[C@@H](Cc1ccccc1)C(=O)N[C@H](CCCCN)C(=O)N[C@@H](Cc1ccccc1)C(N)=O` [lipopeptide #20, p-kFFkF] (Palmitoyl-[dK]FF[dK]F-NH2), 100 µg/mL; for `CCCCCCCCCCCCCCCC(=O)N[C@@H](Cc1ccccc1)C(=O)N[C@H](CCCCN)C(=O)N[C@@H](Cc1ccccc1)C(=O)N[C@H](CCCCN)C(=O)N[C@@H](Cc1ccccc1)C(N)=O` [lipopeptide #21, p-FkFkF] (Palmitoyl-F[dK]F[dK]F-NH2), 38 µg/mL.
The same measure, in the same setting: for `CCCCCCCCCCCCCCCC(=O)N[C@@H](Cc1ccccc1)C(=O)N[C@H](CCCCN)C(=O)N[C@H](CCCCN)C(=O)N[C@H](CCCCN)C(=O)N[C@@H](Cc1ccccc1)C(N)=O` [lipopeptide #10, p-FkkkF] (Palmitoyl-F[dK][dK][dK]F-NH2) the value was 6 µg/mL; for `CCCCCCCCCCCCCCCC(=O)N[C@H](CCCCN)C(=O)N[C@H](CCCCN)C(=O)N[C@H](CCCCN)C(=O)N[C@H](CCCCN)C(=O)N[C@H](CCCCN)C(N)=O` [lipopeptide #1, p-kkkkk] (Palmitoyl-[dK][dK][dK][dK][dK]-NH2), 6 µg/mL; for `CCCCCCCCCCCCCCCC(=O)N[C@@H](Cc1ccccc1)C(=O)N[C@H](CCCCN)C(=O)N[C@@H](Cc1ccccc1)C(=O)N[C@H](CCCCN)C(=O)N[C@H](CCCCN)C(N)=O` [lipopeptide #15, p-FkFkk] (Palmitoyl-F[dK]F[dK][dK]-NH2), 10 µg/mL.
With `CCCCCCCCCCCCCCCC(=O)N[C@H](CCCCN)C(=O)N[C@H](CCCCN)C(=O)N[C@@H](Cc1ccccc1)C(=O)N[C@@H](Cc1ccccc1)C(=O)N[C@H](CCCCN)C(N)=O` [lipopeptide #11, p-kkFFk] (Palmitoyl-[dK][dK]FF[dK]-NH2), the “Average MIC” value is 6 µg/mL.
In the case of `CCCCCCCCCCCCCCCC(=O)N[C@H](CCCCN)C(=O)N[C@@H](Cc1ccccc1)C(=O)N[C@H](CCCCN)C(=O)N[C@@H](Cc1ccccc1)C(=O)N[C@H](CCCCN)C(N)=O` [lipopeptide #12, p-kFkFk] (Palmitoyl-[dK]F[dK]F[dK]-NH2), the “Average MIC” value was found to be 12 µg/mL.
As to `CCCCCCCCCCCCCCCC(=O)N[C@H](CCCCN)C(=O)N[C@@H](Cc1ccccc1)C(=O)N[C@@H](Cc1ccccc1)C(=O)N[C@@H](Cc1ccccc1)C(=O)N[C@H](CCCCN)C(N)=O` [lipopeptide #23, p-kFFFk] (Palmitoyl-[dK]FFF[dK]-NH2), the “Average MIC” value was 100 µg/mL.
Same read-out and setting: the result for `CCCCCCCCCCCCCCCC(=O)N[C@@H](Cc1ccccc1)C(=O)N[C@H](CCCCN)C(=O)N[C@H](CCCCN)C(=O)N[C@@H](Cc1ccccc1)C(=O)N[C@H](CCCCN)C(N)=O` [lipopeptide #13, p-FkkFk] (Palmitoyl-F[dK][dK]F[dK]-NH2) reads 6 µg/mL; that for `CCCCCCCCCCCCCCCC(=O)N[C@H](CCCCN)C(=O)N[C@H](CCCCN)C(=O)N[C@H](CCCCN)C(=O)N[C@@H](Cc1ccccc1)C(=O)N[C@H](CCCCN)C(N)=O` [lipopeptide #3, p-kkkFk] (Palmitoyl-[dK][dK][dK]F[dK]-NH2), 4 µg/mL; that for `CCCCCCCCCCCCCCCC(=O)N[C@H](CCCCN)C(=O)N[C@H](CCCCN)C(=O)N[C@H](CCCCN)C(=O)N[C@@H](Cc1ccccc1)C(=O)N[C@@H](Cc1ccccc1)C(N)=O` [lipopeptide #7, p-kkkFF] (Palmitoyl-[dK][dK][dK]FF-NH2), 14 µg/mL.
In the case of `CCCCCCCCCCCCCCCC(=O)N[C@H](CCCCN)C(=O)N[C@H](CCCCN)C(=O)N[C@@H](Cc1ccccc1)C(=O)N[C@H](CCCCN)C(=O)N[C@H](CCCCN)C(N)=O` [lipopeptide #4, p-kkFkk] (Palmitoyl-[dK][dK]F[dK][dK]-NH2), the “Average MIC” value amounted to 6 µg/mL.
On the same count and under the same terms, the result for `CCCCCCCCCCCCCCCC(=O)N[C@H](CCCCN)C(=O)N[C@@H](Cc1ccccc1)C(=O)N[C@H](CCCCN)C(=O)N[C@H](CCCCN)C(=O)N[C@@H](Cc1ccccc1)C(N)=O` [lipopeptide #9, p-kFkkF] (Palmitoyl-[dK]F[dK][dK]F-NH2) reads 5 µg/mL; that for `CCCCCCCCCCCCCCCC(=O)N[C@H](CCCCN)C(=O)N[C@@H](Cc1ccccc1)C(=O)N[C@@H](Cc1ccccc1)C(=O)N[C@H](CCCCN)C(=O)N[C@H](CCCCN)C(N)=O` [lipopeptide #14, p-kFFkk] (Palmitoyl-[dK]FF[dK][dK]-NH2), 8 µg/mL; that for `CCCCCCCCCCCCCCCC(=O)N[C@H](CCCCN)C(=O)N[C@@H](Cc1ccccc1)C(=O)N[C@H](CCCCN)C(=O)N[C@@H](Cc1ccccc1)C(=O)N[C@@H](Cc1ccccc1)C(N)=O` [lipopeptide #18, p-kFkFF] (Palmitoyl-[dK]F[dK]FF-NH2), 50 µg/mL.
For the compound `CCCCCCCCCCCCCCCC(=O)N[C@H](CCCCN)C(=O)N[C@H](CCCCN)C(=O)N[C@H](CCCCN)C(=O)N[C@H](CCCCN)C(=O)N[C@@H](Cc1ccccc1)C(N)=O` [lipopeptide #2, p-kkkkF] (Palmitoyl-[dK][dK][dK][dK]F-NH2), the “Average MIC” value was found to be 6 µg/mL.

The assay is the same for the next values; noted with them: highest concentration tested 200 μg/ml.
p-FFkkF [lipopeptide #22]: the “inhibitory activity in MIC assay (in words)” value is reported as “no inhibitory activity”.
Same read-out and setting: for p-FkFFk [lipopeptide #24] the value was “no inhibitory activity”; for p-FFkFk [lipopeptide #25], “no inhibitory activity”; for p-FFFkk [lipopeptide #26], “not active”.

In a further assay the test system is MRSA cells. As to the kind of experiment: Mixing leucine-lysine random peptide mixtures and copper ions assay. Type of assay: cell-based, Staphylococcus aureus. The note with it: 400 ppm copper sulfate, 6 hours. On the procedure:
Mixing Leucine-Lysine random peptide mixtures and copper ions assay: MRSA cells were grown as described in order to prepare a bacterial suspension with O.D.600 nm of 0.1. […] After mixing by vortex, a 1 mL sample was taken for O.D. measurement and the remaining 1 mL sample was incubated for 6 hours at 37° C., 100 RPM. After this time, the O.D. was re-measured and the percentage growth was calculated according to the equation: […]
With `O=S(=O)([O-])[O-].[Cu+2]` [copper sulfate], the “growth of MRSA lower than the control” value is on record as approximately 15%.
